From patent publication US12180252B2, “Peptide derived from PEP27 peptide and uses thereof” (priority 2021, dated 2024)
Values after ≈ are worked out from the molar mass of the structure shown. Like-named read-outs stand apart in the source and are kept apart here.

Experiments:
HaCaT cells = assay: Cell absorption of peptide (fluorescence imaging); assay type: cell-based, human; conditions: 5 μM, 1 hour
Procedure: With regard to the synthetic peptide prepared by the method of above 1, an ability of penetrating cells was determined through a phase-contrast microscope. Specifically, human keratinocyte line (HaCaT cells) was dispensed on a 6-well plate provided with a polylysine coating cover slip (SPL Life Sciences, Gyeonggi-do, Korea) at 2×10^5 cells/well and cultured for 24 hours, and then treated with fluorescein isothiocyanate (FITC)-labeled PEP27-2 (FITC-PEP27-2) at a concentration of 5 μM, followed by incubation in a 5% CO2 incubator for 1 hour. After 1 hour, a nucleus of the cell was treated and stained with Hoechst 33342 nucleic acid dye solution (Invitrogen, Carlsbad, CA, USA; 8 μM) for 10 minutes. After washing the stained product with PBS three times, fluorescence in the cells was imaged using a phase-contrast microscope (EVOS™ FL Auto 2 Imaging System, Thermo Fisher Scientific).

[1] = test system: Staphylococcus aureus MW2; assay type: in vivo, BALB/c mouse; conditions: for reduction of the number of bacteria in abscess tissue: 0.2 mg/kg alone, injected 2 hours after infection
Procedure: The efficacy of PEP27-2, which is the peptide having the most excellent antimicrobial activity among the peptides prepared by the method of above 1 was evaluated in vivo using a mouse model.
Specifically, the epidermis on the back side (dorsal side) of 6-7 week old BALB/c mouse was infected with Staphylococcus aureus MW2 having GFP gene inserted therein (S. aureus MW2-GFP, 1×10^9 CFU/10 μl PBS). After 2 hours form infection, PEP27-2 alone (0.2 mg/kg, 50 μl), ceftriaxone alone (0.2 mg/kg, 50 μl) or a combination of the peptide and the antibiotic (0.05 mg/kg PEP27-2+0.1 mg/kg ceftriaxone, 50 μl) was injected. Further, the control mice were injected with the same amount of PBS ([…]) without peptide. On 1st, 2nd, 3rd, 4th, 5th and 7th days after treatment, the shape of abscess was photographed, and surrounding tissues as well as the abscess were gathered. The abscess tissue was homogenized in 500 μl of sterile PBS using a tissue grinder. A serial diluted solution of the homogenate was spread on an agar plate and cultured for 24 hours in order to quantify the Staphylococcus aureus MW2 strain.

[2] = test system: Staphylococcus aureus MW2-GFP; assay type: in vivo, mouse; conditions: up to 3 days after infection with 1×10^9 CFU
Procedure: For real-time tracking the progress of infection with regard to the peptide that has the most excellent antimicrobial activity among the peptides prepared by the method of above 1, fluorescence (GFP)-labeled Staphylococcus aureus MW2 (Staphylococcus aureus MW2-GFP) was used. Fluorescence images were taken from the beginning of infection to 6 hours, 1 day, 2 days and 3 days by means of an FOBI fluorescence imaging system (Neo Science, Suwon, Korea), followed by analysis thereof using live image software.

[3] = test system: TNF-α, IL-1β, IL-6, iNOS and COX-2; assay: Pro-inflammatory cytokine gene expression in abscess tissue, qPCR; assay type: in vivo, mouse; conditions: mRNA relative to β-actin
Procedure: For mice not infected with bacteria, infected mice, and mice subjected to treatment using PEP27-2 alone, ceftriaxone alone or a combination thereof after infection, the expression of inflammatory genes in the mice were measured thus to verify the efficacy of each of PEP27-2 single treatment and combination treatment with antibiotics.
Specifically, total RNA was isolated from wound tissues using Trizol reagent. From the prepared total RNA, cDNA was synthesized using a cDNA synthesis kit. qPCR was implemented using qPCR 2× premix (SYBR Green), followed by determining expression amounts of TNF-α, IL-1β, IL-6, iNOS and COX-2 among inflammatory genes. Expression levels were quantified based on β-actin, and the PCR process was conducted as followed: at 50° C. for 2 minutes and at 95° C. for 10 minutes; 95° C. for 15 seconds, 60° C. for 1 minute, 40 cycles; 95° C. for 15 seconds, 60° C. for 1 minute, 95° C. for 30 seconds, and 60° C. for 15 seconds. The gene expression was calculated after standardization to β-actin level through ΔΔCt method.

[4] = test system: Staphylococcus aureus MW2; assay: Hematoxylin and eosin staining of abscess tissue; assay type: in vivo, mouse; conditions: tissue on day 7, treated 2 hours after infection
Text: Among tissues on the abscess portion and infected portion gathered in the above 13, the tissue on day 7 was fixed with 4% buffered formalin. The infection portion or abscess portion fixed with formalin was embedded in paraffin, while staining a fragment of the cross-section with hematoxylin and eosin.

P. aeruginosa 4007 = assay: microbe, parasite or virus in culture; conditions: Pseudomonas aeruginosa, 4007, 18 h, read-out: Minimal inhibitory concentration
Procedure: (§1) In order to evaluate the antimicrobial activity of the peptides prepared by the method of above 1, a minimal inhibitory concentration (MIC) value as the minimum concentration of a peptide, in which cells are not divided, was measured.
(§2) Specifically, the strains shown in Table 3 below were purchased, cultured in a medium having a constitutional composition suitable for each strain to a mid-log phase, and then diluted to a concentration of 2×10^4 cells/100 μl to prepare the product on a micro-titration plate (Nunc, USA). Then, PEP27, PEP27-1, PEP27-2 or PEP27-5 peptide synthesized in the above 1 was added to each well by serial dilution ½ times, followed by incubation at 37° C. for 18 hours.
(§3) Specifically, subject strains were prepared by the method of above 2, and were treated with the antibiotics, that is, meropenem, ceftazidime, ceftriaxone or vancomycin, respectively, followed by determining MICs of the antibiotics.

S. aureus ATCC29213 = assay: microbe, parasite or virus in culture; conditions: Staphylococcus aureus, ATCC29213, 18 h, read-out: Minimal inhibitory concentration
Procedure: as §1, §2, §3

S. aureus CCARM3089 = assay: microbe, parasite or virus in culture; conditions: Staphylococcus aureus, CCARM3089, 18 h, read-out: Minimal inhibitory concentration
Procedure: as §1, §2, §3

S. aureus MW2 = assay: microbe, parasite or virus in culture; conditions: Staphylococcus aureus, MW2, 18 h, read-out: Minimal inhibitory concentration
Procedure: as §1, §2, §3

S. aureus CCARM3090 = assay: microbe, parasite or virus in culture; conditions: Staphylococcus aureus, CCARM3090, 18 h, read-out: Minimal inhibitory concentration
Procedure: as §1, §2, §3

S. aureus ATCC25923 = assay: microbe, parasite or virus in culture; conditions: Staphylococcus aureus, ATCC25923, 18 h, read-out: Minimal inhibitory concentration
Procedure: as §1, §2, §3

P. aeruginosa 4891 = assay: microbe, parasite or virus in culture; conditions: Pseudomonas aeruginosa, 4891, 18 h, read-out: Minimal inhibitory concentration
Procedure: as §1, §2, §3

P. aeruginosa ATCC27853 = assay: microbe, parasite or virus in culture; conditions: Pseudomonas aeruginosa, ATCC27853, 18 h, read-out: Minimal inhibitory concentration
Procedure: as §1, §2, §3

S. aureus CCARM3518 = assay: microbe, parasite or virus in culture; conditions: Staphylococcus aureus, CCARM3518, 18 h, read-out: Minimal inhibitory concentration
Procedure: as §1, §2, §3

P. aeruginosa ATCC15692 = assay: microbe, parasite or virus in culture; conditions: Pseudomonas aeruginosa, ATCC15692, 18 h, read-out: Minimal inhibitory concentration
Procedure: as §1, §2, §3

S. aureus USA300 = assay: microbe, parasite or virus in culture; conditions: Staphylococcus aureus, USA300, 18 h, read-out: Minimal inhibitory concentration
Procedure: as §1, §2, §3

Compound	cellular absorption into HaCaT cells (HaCaT cells)	size of formed abscess ([1]; compared with infected group injected only with PBS, up to day 7)	reduction of the number of bacteria in abscess tissue ([1]; day 3) [%]	reduction of the number of bacteria in abscess tissue ([1]; day 7) [%]	fluorescence signal of S. aureus MW2-GFP at the abscess [2]	expression of inflammatory cytokines (TNF-α, IL-1β, IL-6, iNOS, COX-2) [3]	number of visible scabs formed on the skin surface and number of bacteria [4]	MIC (P. aeruginosa 4007) [µM]	MIC (S. aureus ATCC29213) [µM]	MIC (S. aureus CCARM3089) [µM]	MIC (S. aureus MW2) [µM]	MIC (S. aureus CCARM3090) [µM]	MIC (S. aureus ATCC25923) [µM]	MIC (P. aeruginosa 4891) [µM]	MIC (P. aeruginosa ATCC27853) [µM]	MIC (S. aureus CCARM3518) [µM]	MIC (P. aeruginosa ATCC15692) [µM]	MIC (S. aureus USA300) [µM]
GRKKRRQRRRPQ (TAT)	absorbed into the cytoplasm and the nucleus of HaCaT cell																	
CO/N=C(\C(=O)N[C@@H]1C(=O)N2C(C(=O)O)=C(CSc3nc(=O)c(=O)[nH]n3C)CS[C@H]12)c1csc(N)n1 [Ceftriaxone, ceftriaxone]		smaller than the experimental group in which only PBS was injected	46.0	61.5	not reduced	suppressed	markedly reduced	16 (≈ 8.87 µg/mL)	4 (≈ 2.22 µg/mL)	512 (≈ 284 µg/mL)	32 (≈ 17.7 µg/mL)	512 (≈ 284 µg/mL)	8 (≈ 4.44 µg/mL)	64 (≈ 35.5 µg/mL)	8 (≈ 4.44 µg/mL)	256 (≈ 142 µg/mL)	16 (≈ 8.87 µg/mL)	16 (≈ 8.87 µg/mL)
